Assays:
HIV-1IIIB = test: HIV-1 antiviral assay (CPE reduction) in CEM-SS cells; details: peptide 10 micrograms per ml; 6 days post-infection; MTS
HCMV strain AD169 = test: HCMV plaque reduction assay in MRC-5 cells; assay type: cell-based; details: peptide 10 micrograms per ml, 7-10 days
From the text: Ganciclovir was used as positive control.

[1] = system: MRC-5 cells (human embryonal lung fibroblasts); test: Cytotoxicity testing in MRC-5 cells (CellTiter 96); assay type: cell-based; details: 6 days
Procedure: For cytotoxicity testing, MRC-5 cells were seeded at 2,500 cells/well in 96 well plates using growth medium. […] The following day, peptide was added and tested in duplicates. After a 6 days incubation period, cell viability was measured using CellTiter 96 Solution (Promega). Plates were incubated for additional 4 hours at 37° C.

CEM-SS cells = test: Cytotoxicity (MTS cell viability) in HIV-1 assay; details: peptide 10 micrograms per ml, MTS

| Compound | % CPE reduction in HIV-1 infected CEM-SS cells (HIV-1IIIB) [%] | % plaque reduction (HCMV strain AD169) [%] | % Cell viability [1] [%] | % Cell viability (CEM-SS cells) [%] |
| --- | --- | --- | --- | --- |
| CC(C)(C)NC(=O)[C@@H]1CN(Cc2cccnc2)CCN1C[C@@H](O)C[C@@H](Cc1ccccc1)C(=O)N[C@H]1c2ccccc2C[C@H]1O [Indinavir] | 100 | – | – | – |
| Nc1nc(O)c2ncn(COC(CO)CO)c2n1 [Ganciclovir, reference compound] | – | 100 | 100 | – |
| Cc1cn([C@H]2C[C@H](N=[N+]=[N-])[C@@H](CO)O2)c(=O)[nH]c1=O [AZT, reference compound] | 99 | – | – | 97 |

Source: patent US20100204149A1, “USE OF OCTREOTIDE AS A THERAPEUTIC AGENT” (priority 2007, published 2010)
